{
  "source": "patent US20060281806A1",
  "about": "“Treatment and inhibition of disease conditions using flexible heteroarotinoids” (priority 2005, published 2006)",
  "key": {"[1]": {"tested_on": "C33a human cervical cell line", "test": "In vitro cytotoxicity (SRB growth inhibition) assay, C33a", "assay_type": "cell-based", "set-up": "dose or concentration left out as unconfirmed", "details": "72 h", "experimental": "The SHetA2, SHetA3, SHetA4, SHet50 and 9-cis-RA compounds were evaluated in 4 cervical carcinoma cell lines. The SiHa, CC-1 and C33a human cervical cell lines were maintained in Minimal Essential Media (MEM) containing Earle's salts and L-glutamine supplemented with nonessential amino acids, 1% sodium pyruvate, 10% fetal bovine serum (FBS) and antibiotic/antimycotic. The HT-3 cervical carcinoma cell line was cultured in McCoy's 5a medium supplemented with 10% FBS and antibiotic/antimycotic. Cells were inoculated into 96 well microtiter plates at densities of 1000 cells/well and incubated for 24 h prior to addition of drugs. Drugs were dissolved in dimethyl sulfoxide (DMSO) and diluted in complete medium, prior to addition to triplicate culture wells to achieve final concentrations of […]. Following drug addition, the plates were incubated for 72 h. The assay was terminated by the addition of cold TCA and the cells were stained with 0.4% sulforhodamine B (SRB) in 1% acetic acid. Bound stain was subsequently solubilized with 10 mM trizma base, and the absorbance was read on an automated plate reader at a wavelength of 560 nm. Growth inhibition was determined by dividing the average Optical Density (OD) of the triplicated treated cultures by the average OD of the triplicate control cultures treated with DMSO solvent only. This ratio was converted into a percentage by multiplying by 100. The potency (concentration required to induce half of the maximal activity—GI50) were derived from dose-response graphs generated with results from 3 to 5 individual experiments using GraphPad Software."}, "[2]": {"tested_on": "EAhy.926 endothelial cells", "test": "Endothelial tube branching on matrigel", "assay_type": "cell-based", "details": "various concentrations (1, 5, 10 μM); scored after twenty hours", "text": "The graph on the left provides quantification of the endothelial branches for each treatment dose."}, "[3]": {"tested_on": "blood vessel density in bFGF/VEGF-treated CAMs", "test": "Chorioallantoic membrane (CAM) assay", "assay_type": "in vivo, chick", "details": "5 μM SHetA2; versus bFGF/VEGF-treated CAMs", "experimental": "FIG. 8. Effect of 5 μM SHetA2 on blood vessel density in the CAM assay. The mean± SEM blood vessel density per treatment as compared to bFGF/VEGF-treated CAMs; *=p<0.05 and **=p<0.001 as compared to bFGF/VEGF-treated CAMs as determined by one-way ANOVA and Neuman-Keuls post-test.\nThe CAM assay that was used is based upon the original procedure by Jakob et al. (36) with modifications made by our laboratory (37, 38) (see FIG. 8)."}, "[4]": {"tested_on": "Thymidine Phosphorylase (TP)", "test": "Real time rt-PCR and Western blot validation, TP", "assay_type": "cell-based", "details": "1 μM (rt-PCR, OVCAR-3) and 10 μM (Western blot, A2780)", "experimental": "(§1) FIG. 13. Real Time rt-PCR validation of SHetA2 inhibition of TP and TSP-1 mRNA Expression. OVCAR-3 cultures were treated with 1 μM SHetA2 for the indicated period of time prior to harvesting the cells and isolating RNA. cDNA was prepared and used in real time rt-PCR reactions. Real time rt-PCR was performed on CDNA from cultures various treatment times.\n(§2) FIG. 14. Western blot validation of SHetA2 inhibition of TP and TSP4 protein expression. A2780 ovarian cancer cells were treated with 10 μM SHetA2 for the indicated amounts of time. Equal amounts of whole cell protein extracts were evaluated by Western blot."}, "Thrombospondin 4 (TSP4)": {"tested_on": "Thrombospondin 4 (TSP4)", "test": "Real time rt-PCR and Western blot validation, TSP-4", "assay_type": "cell-based", "details": "1 μM (rt-PCR, OVCAR-3) and 10 μM (Western blot, A2780)", "experimental": "as §1, §2"}, "NF-κB": {"tested_on": "NF-κB", "test": "NF-κB luciferase reporter assay in A2780 cultures", "assay_type": "cell-based", "details": "10 μM SHetA2, inhibition increased over 4 hours", "experimental": "FIG. 15. SHetA2 Inhibition of NF-κB. A2780 cultures were transfected with the NF-κB reporter and treated with 10 μM SHetA2 for the indicated times. Cell lysates were prepared and evaluated for luciferase activity which was normalized for protein concentration.\nBecause both TP and TSP4 have DNA binding sites for the NFκB transcription factor in their promoter, the ability of SHetA2 to inhibit activity of NF-κB in ovarian cancer cultures was tested using a luciferase reporter plasmid driven by NF-κB sites in the promoter. […] Inhibition increased over the 4 hour evaluation time (FIG. 15)."}, "[5]": {"tested_on": "organotypic cultures of normal endometrial cells treated with DMBA", "test": "Chemoprevention in DMBA-treated organotypic cultures of normal endometrial cells", "assay_type": "cell-based", "details": "histology and karyometric analysis", "text": "Untreated: The specimen is cellular with both surface and mid-gel cells presence in abundance. Two cell types are clearly present. One appears to be stromal. The nuclei are thin and spindle shaped and the cytoplasm is similar. When cut in cross-section the nuclei are very small and round and hyperchromatic. The other cells have large, oval to almost boxcar nuclei with small nucleoli and abundant cytoplasm. Numerous mitosis are present. The epithelial cells are almost syncitial in nature and appear to cling to one another. With DMBA Carcinogen: The specimen is cellular. The cells present have lost their cytoplasm. There is more pleomorphism of the cells and many are very hyperchromatic. Mitoses are very numerous-approximately 2× the number in untreated. Cells no longer are together but are distinct one from another. Stromal cells intermix with the epithelial cells. […]\nFIG. 19 illustrates a typical experiment in which organotypic cultures of normal endometrial cells were treated with a carcinogen called DMBA and developed the cancer phenotype. […] All segmented nuclei were then subjected to texture feature extraction using TICAS software, resulting in 95 textrue features for each nucleus that were subjected to quantitative analysis."}},
  "data": [
    {"molecule": "CC1(C)CC(C)(C)c2cc(NC(=S)Nc3ccc([N+](=O)[O-])cc3)ccc2S1", "note": "[SHetA2]", "values": [
      {"measurement": "Efficacy: percent growth inhibition relative to the untreated control", "setting": "[1]", "value": 87, "unit": "%"},
      {"measurement": "endothelial tube branching (in vitro angiogenesis)", "setting": "[2]", "value": "dose-responsive inhibition of angiogenesis"},
      {"measurement": "angiogenesis (blood vessel density) in CAM assay", "setting": "[3]", "value": "inhibits angiogenesis"},
      {"measurement": "expression of TP at the RNA and protein levels", "setting": "[4]", "value": "inhibit expression"},
      {"measurement": "expression of TSP-4 at the RNA and protein levels", "setting": "Thrombospondin 4 (TSP4)", "value": "inhibit expression"},
      {"measurement": "time to inhibition of NF-κB reporter activity", "setting": "NF-κB", "value": "≤ 30", "unit": "min"},
      {"measurement": "development of the DMBA-induced cancer phenotype", "setting": "[5]", "value": "prevented the development of this phenotype"}
    ]}
  ]
}
